Test results: article PMC12349723, “Computationally accelerated identification of P-glycoprotein inhibitors” (PLOS One, 2025)

How the values were obtained:
P-gp [1] = system: P-gp; parameters: method as in earlier work; conditions: ref [66-68]; cited from earlier work
DU145-TXR cells = conditions: cited from earlier work
DU145 cells = system: DU145 cells; parameters: method as in PMID 26516582; conditions: ref [8]; cited from earlier work
[2] = system: HFL1 (human lung fibroblast) cell line; assay: MTT viability assay, inherent toxicity in non-cancerous HFL1 cells; type: cell-based; conditions: HFL1 cells, compound alone, mean of 8 samples
Protocol: The chemotherapeutic sensitive DU145 human prostate cancer cells and the multidrug resistant sub-line, DU145-TXR, were generous gifts from Dr. Evan Keller (University of Michigan, Ann Arbor, MI). The MDR, P-gp overexpressing DU145-TXR cells were maintained under positive selection pressure by supplementing complete medium with 10 nM paclitaxel (Acros Organics, NJ). […] The MDR, P-gp overexpressing A2780-ADR cell line was maintained under positive selection pressure by supplementing complete medium with 100 nM doxorubicin (Fisher Scientific, NJ). The non-cancerous HFL1 (human lung fibroblast) cell line cell line was a generous gift from Dr. Robert Harrod (Southern Methodist University, Dallas, TX) and was maintained in complete F12K media consisting of F12K with 10% fetal bovine serum, 100 U/mL penicillin, and 100 µg/mL streptomycin (Gibco). Flasks and 96 well plates that were used with the non-cancerous line HFL1 were pre-treated with 0.1 mg/ml Collagen Type 1 (Gibco) and rinsed with PBS (Fisher).
MTT assays measure the reduction of yellow, water soluble 3-(4,5-dimethylthiazol-2-yl)-2,5-diphenyltetrazolium bromide (MTT) to blue, insoluble formazan crystals by cellular reductase processes in living cells. Cells were trypsinized from monolayers and seeded in complete medium in 96 well plates. Cancerous cell lines (DU145, DU145-TXR, A2780, A2780-ADR) were seeded at 3,000 cells per well in complete RPMI medium. The non-cancerous HFL1 line was seeded at 4,000 cells per well in complete F12K medium, in collagen-treated plates (Collagen Type 1, Gibco). Cells were incubated with experimental compounds for 48 hours at 37 °C and 5% CO2 in a humidified incubator. At 48 hours, MTT was added (20 µL/well of 5 mg/mL MTT in PBS) to each well. After incubation for 4 hours, the media was removed, and the formazan crystals were dissolved in 100 µL DMSO per well. Plates containing the semi-adherent A2780 or A2780-ADR lines were spun at 1400 rpm for 3 minutes prior to aspiration of media, and the addition of DMSO. Plates were shaken for 10 minutes at 500 rpm on an Orbital shaker (LabDoctor from MidSci, St Louis, MO). The absorbance was measured at 570 nm using a Bio-Tek Cytation 5 (Bio-Tek, Winooski, VT). The measured absorbance value was correlated with the number of metabolically active cells in that well, corrected for absorbance of media. The percent of cell viability (termed ‘survival’ here) was calculated as a percentage of survival of the control condition, which refers to vehicle-treated (DMSO as vehicle) cells, or vehicle-and-chemotherapeutic-treated cells, if testing a compound’s ability to re-sensitize cells to a chemotherapeutic. Percent survival was calculated using the following equation:
% Survival=100 × absorbance of experimental cells/mean absorbance of control treated cells
For DU145-TXR, DU145, HFL1 and A2780 cells – data are the mean ± one standard deviation, 8 samples per compound, from at least two independent trials per compound. […] For A2780-ADR cells, data are the mean ± one standard deviation with 12 samples per compound, from at least two independent trials per compound.
If a P-gp inhibitor is intrinsically toxic to non-cancerous cells, it is more likely to be participating in undesirable off-target interactions. The top compounds from the screens shown above were screened for inherent toxicity using the non-cancerous HFL1 (human lung fibroblast) cell line. HFL1 cells were incubated with 15 µM compound for 48 hours, after which cell viability was assessed using MTT cell viability assays. A 20% reduction in cell viability (compared to DMSO-treated cells) was considered the maximum acceptable toxicity (see dotted line). The chemotherapeutic daunorubicin was included as a positive control for toxicity.
The top compounds from previous screens were tested against the non-cancerous HFL1 cell line.

P-gp [3] = target: T1, P-gp (Homo sapiens, UniProt P08183); assay: LC-MS/MS intracellular accumulation assay with or without tariquidar (P-gp transport substrate test) in DU145-TXR cells; type: in vitro ADME
T1 construct: The MDR, P-gp overexpressing DU145-TXR cells were maintained under positive selection pressure; endogenous in cells; host or cells: DU145-TXR (paclitaxel-resistant sub-line of DU145 human prostate cancer cells)
T1 sequence (P08183 whole entry): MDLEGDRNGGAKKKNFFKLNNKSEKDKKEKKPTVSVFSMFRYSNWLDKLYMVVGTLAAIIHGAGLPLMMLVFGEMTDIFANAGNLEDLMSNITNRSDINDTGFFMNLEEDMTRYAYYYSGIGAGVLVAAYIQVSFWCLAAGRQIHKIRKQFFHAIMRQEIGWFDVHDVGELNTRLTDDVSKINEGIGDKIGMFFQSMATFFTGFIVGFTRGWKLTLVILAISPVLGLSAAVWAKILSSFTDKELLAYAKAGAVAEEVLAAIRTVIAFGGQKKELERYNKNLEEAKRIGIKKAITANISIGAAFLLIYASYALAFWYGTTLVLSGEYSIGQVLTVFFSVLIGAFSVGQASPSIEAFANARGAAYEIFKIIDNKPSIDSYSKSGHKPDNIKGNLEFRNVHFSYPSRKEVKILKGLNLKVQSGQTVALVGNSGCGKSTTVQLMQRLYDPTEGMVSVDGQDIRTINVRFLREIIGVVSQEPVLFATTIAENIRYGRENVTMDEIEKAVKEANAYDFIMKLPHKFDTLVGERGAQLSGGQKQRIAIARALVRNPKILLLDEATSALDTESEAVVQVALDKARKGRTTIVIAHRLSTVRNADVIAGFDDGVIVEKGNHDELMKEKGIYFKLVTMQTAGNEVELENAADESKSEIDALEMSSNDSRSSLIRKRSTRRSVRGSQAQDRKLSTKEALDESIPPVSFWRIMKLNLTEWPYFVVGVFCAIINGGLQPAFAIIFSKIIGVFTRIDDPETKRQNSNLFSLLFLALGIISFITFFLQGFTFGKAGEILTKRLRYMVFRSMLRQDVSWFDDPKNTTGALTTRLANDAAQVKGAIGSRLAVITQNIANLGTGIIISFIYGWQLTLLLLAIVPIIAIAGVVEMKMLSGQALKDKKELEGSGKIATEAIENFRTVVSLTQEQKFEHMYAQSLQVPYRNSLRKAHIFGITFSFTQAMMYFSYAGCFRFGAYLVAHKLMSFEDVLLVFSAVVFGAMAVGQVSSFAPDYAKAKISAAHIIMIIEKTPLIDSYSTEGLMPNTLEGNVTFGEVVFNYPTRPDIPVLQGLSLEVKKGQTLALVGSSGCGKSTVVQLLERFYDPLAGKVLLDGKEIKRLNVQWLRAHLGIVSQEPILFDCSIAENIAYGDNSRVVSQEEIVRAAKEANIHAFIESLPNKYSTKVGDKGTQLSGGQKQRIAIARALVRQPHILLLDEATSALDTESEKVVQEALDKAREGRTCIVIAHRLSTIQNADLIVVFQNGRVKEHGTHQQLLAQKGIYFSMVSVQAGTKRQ
Protocol: DU145-TXR cells were seeded at 350,000 cells per well in 6-well plates in complete RPMI medium. […] A full sample of DAU was also prepared for quantitative analysis. […] Media was removed with a glass vacuum aspirator. Cells were re-suspended and washed in 2mL of ice-cold Hank’s Balanced Salt Solution (HBSS, Gibco), and spun again at 2400 rpm. Cell lysates were diluted in 600 µL of ice-cold HBSS, flash-frozen in liquid nitrogen, and stored at −80 °C until analysis. LC-MS/MS intracellular accumulation assays were performed in collaboration with the Pharmacology Core at the University of Texas Southwestern Medical Center (UTSW). […] This method allowed us to quantify the change – if any – in the relative amount of compound present in the samples when TQR was added. An increase in the relative amount of compound indicates enhanced intracellular retention that compound. […] The “Internal Standard” (IS) is a known substance added in a constant amount to each sample. The “Peak Area”, expressed as “counts”, describes the number of MS/MS spectra from the experimental compound and serves as a measure of its relative abundance. […] These values allow a comparison of the relative abundance of compound between the “- TQR” and “+ TQR” samples, and to test for statistically significant differences. LC-MS/MS quantification was performed as follows. Cell lysate was aliquoted into Eppendorf tubes. In contrast to [9], blank cell lysates were not spiked with varying concentrations of each compound to create a standard curve, since compound amounts were normalized to abundance of the internal standard. […] The supernatant was then transferred to an HPCL vial, and subsequently analyzed using LC-MS/MS using a Sciex 4000QTRAP mass spectrometer coupled to a Shimadzu Prominence LC. […] The column flow rate was 1.5 ml/min using an Agilent C18 XDB, 5 micron packing 50 × 4.6 mm column. […] A BSA standard curve was then prepared in water and mixed using the same ratio. […] The ratio of Analyte to Internal Standard was normalized to the lysate content for each individual sample. […] Statistical significance was determined using a Student’s T Test in GraphPad Prism. We aimed to identify P-gp inhibitors that are not transport substrates of the pump itself. […] To test these predictions in vitro, liquid chromatography with tandem mass spectrometry (LC-MS/MS) was used to assess the intracellular accumulation of experimental compounds as described in [9]. […] The relative intracellular accumulation of each experimental compound was then assessed using LC-MS/MS. […] The P-gp substrate and chemotherapeutic daunorubicin (DAU) was used as a positive control for P-gp-mediated transport.

[4] = Resazurin cell viability pre-screen in DU145-TXR cells with or without PTX; type: cell-based; conditions: human, mean of two experiments in triplicate, read-out: Viability, 15 µM compound alone
Protocol: Culture of the DU145, DU145-TXR, and HFL1 cell lines was performed as described in [8]. Culture of the A2780 and A2780-ADR cell lines was performed as described in [9]. MTT assays were performed as described in [8] with minor modifications. LC-MS/MS accumulation assays were performed as described in {Nanayakkara, 2018 #173} [9] with some modifications. […] The inhibitor concentration was lowered to 15 µM here, as the goal of the study was to identify compounds that were effective in reversing MDR at low concentrations, and to determine if the expanded virtual-assisted methods improved on our first-draft attempt. Compounds 56–98 were pre-screened using Resazurin cell viability assays: cells were incubated with 15 µM compound with or without 500 nM PTX for 48 hours, after which cell survival was assessed similar to [39]. Data represent the mean of two separate experiments, with n = 3 samples per experiment (n = 6 total) (S4 Table). The top performing compounds from this initial screen were re-tested with MTT viability assays against DU145-TXR cells, as described below.
S4 Table. Pre-screening of compounds 56 – 98 against DU145-TXR cells with resazurin assays. DU145-TXR cells were incubated with 15 µM compound with or without 500nM PTX for 48 hrs; survival was subsequently determined with the Resazurin viability assay ^[37]. […] Percent re-sensitization is defined as the percent change in viability between cells treated with compound and PTX, versus cells treated with PTX alone. In some instances, the assay reported an increase in viability with compound + PTX, and no percent sensitization is reported. ‘Follow-up Testing’ compounds were re-assessed with MTT assays (Figure 1). Compounds 59 and 89 (*, ‘Follow-up Testing’) were used as negative controls in follow-up MTT assays to test for consistency of results, e.g. to confirm that molecules eliminated in Resazurin assays were justifiably eliminated from later screening with MTT assays.

[5] = SWISS-ADME computational analysis of chemical properties; conditions: predicted aqueous solubility compared to that observed in the laboratory
From the text: Identifying P-gp inhibitors that are not transport substrates remains inherently challenging. To that end, computational tools such as the SWISS-ADME server attempt to use a molecule’s unique chemical and structural characteristics to predict whether it is likely to be a P-gp transport substrate. Our LC-MS/MS assays allowed us to retroactively test the validity of predictions from SWISS-ADME. […] Alternative identifiers for the molecules identified in this study are shown in S7 Table.
S1 Table. Known P-gp Inhibitors and Predicted Chemical Properties. A non-exhaustive list of known P-gp inhibitors and their selected chemical properties ^[64, 65]. Clinical trial outcomes were adapted from ^[10, 11]. Compounds were evaluated using the SWISS-ADME server ^[54]. […] “Predicted P-gp Substrate” - predicted by SWISS-ADME to be a transport substrate of P-gp. “Known P-gp Substrate” – In addition to being P-gp inhibitors, these molecules are: known transport substrates of P-gp, known non-transport substrates of P-gp, unknown whether it is a transport substrate of P-gp ^[66-68]. If the molecule is designated in a specific generation of P-gp inhibitors - First Generation P-gp inhibitors, Second generation P-gp inhibitors, Third generation P-gp inhibitors.

P-gp [6] = target: T1, P-gp; assay: Top Hit classification from combined in vitro criteria; conditions: reverse MDR, do not increase PTX toxicity in chemo-sensitive cancer cells, non-toxic to noncancerous cells, not P-gp substrates
[7] = DU145-TXR, 5 µM compound, 2.5 h, with 500 nM tariquidar, mean ± SD, triplicate
[8] = DU145-TXR, 5 µM compound, 2.5 h, without tariquidar, mean ± SD, triplicate
[9] = significant difference = likely P-gp transport substrate

## COC(=O)[C@H]1[C@H]2C[C@@H]3c4[nH]c5cc(OC)ccc5c4CCN3C[C@H]2C[C@@H](OC(=O)c2cc(OC)c(OC)c(OC)c2)[C@@H]1OC [Reserpine]
P-gp [1]
  P-gp Substrate? (known transport substrate of P-gp): No

## C/C=C/C[C@@H](C)C(=O)[C@H]1C(=O)N[C@@H](C(C)C)C(=O)N(C)CC(=O)N(C)[C@@H](CC(C)C)C(=O)N[C@@H](C(C)C)C(=O)N(C)[C@@H](CC(C)C)C(=O)N[C@@H](C)C(=O)N[C@H](C)C(=O)N(C)[C@@H](CC(C)C)C(=O)N(C)[C@@H](CC(C)C)C(=O)N(C)[C@@H](C(C)C)C(=O)N1C [Valspodar]
P-gp [1]
  P-gp Substrate? (known transport substrate of P-gp): No

## C=C[C@H]1C[N@@]2CC[C@H]1C[C@@H]2[C@@H](O)c1ccnc2ccc(OC)cc12 [Quinidine]
P-gp [1]
  P-gp Substrate? (known transport substrate of P-gp): Yes

## CC(=O)O[C@H]1C(=O)[C@@]2(C)[C@H]([C@H](OC(=O)c3ccccc3)[C@]3(O)C[C@H](OC(=O)[C@H](O)[C@@H](NC(=O)c4ccccc4)c4ccccc4)C(C)=C1C3(C)C)[C@]1(OC(C)=O)CO[C@@H]1C[C@@H]2O [Paclitaxel, paclitaxel]
DU145-TXR cells; 500 nmol/L PTX, ref [8]
  Survival of DU145-TXR cells at 500 nmol/L PTX: greater than 85%
DU145-TXR cells; DU145-TXR vs DU145 parental cells, ref [38]
  Increase in the IC50 of PTX in DU145-TXR relative to DU145 cells: 34 fold
DU145 cells
  Survival of DU145 parental cells at 500 nmol/L PTX: less than 10%

## COc1cccc2c1C(=O)c1c(O)c3c(c(O)c1C2=O)C[C@@](O)(C(C)=O)C[C@@H]3O[C@H]1C[C@H](N)[C@H](O)[C@H](C)O1 [Daunorubicin, reference compound]
[2]
  Mean % Survival: 18.1%
P-gp [3]; [7]
  Intracellular accumulation (normalized ratio of compound to internal standard), Trial 1, + TQR: 0.216 ± 0.002
  Intracellular accumulation (normalized ratio of compound to internal standard), Trial 2, + TQR: 0.232 ± 0.016
P-gp [3]; [8]
  Intracellular accumulation (normalized ratio of compound to internal standard), Trial 1, - TQR: 0.014 ± 0.001
  Intracellular accumulation (normalized ratio of compound to internal standard), Trial 2, - TQR: 0.017 ± 0.001
P-gp [3]; Student's T test of the mean
  P (- TQR vs + TQR), Trial 2: 2x10^-5
P-gp [3]; Student's T test of the mean, listed as DAU
  P (- TQR vs + TQR), Trial 1: < 1x10^-6
P-gp [3]; [9]
  Significance of accumulation with tariquidar, Trial 1: **** (P < 0.0001 = ****)
  Significance of accumulation with tariquidar, Trial 2: **** (P < 0.0001 = ****)

## O[C@@H](COc1cccc2ncccc12)CN1CCN([C@@H]2c3ccccc3[C@@H]3[C@H](c4ccccc42)C3(F)F)CC1 [Zosuquidar]
P-gp [1]
  P-gp Substrate? (known transport substrate of P-gp): Yes

## Cc1cccc(C2CC(=O)c3cnn(-c4nc5ccccc5[nH]4)c3C2)c1 (stereo not shown) [Compound 79, Cc1cccc(c1)C1Cc2c(cnn2-c2nc3ccccc3[nH]2)C(=O)C1]
[4]
  viability at 48 h, 15 µM: 89.9%
[5]
  Correct Water Solubility Prediction?: Yes
P-gp [6]
  Top Hit: No
